Values of other authors, collected in patent US20140039057A1, “Compositions” (Reckitt Benckiser Healthcare (UK) Limited, priority 2008, published 2014).

Details: phase II and phase III clinical studies

SMILES: CC(C(=O)O)c1ccc(-c2ccccc2)c(F)c1 (stereo not shown) [Flurbiprofen]
- efficacy in the treatment of sore throat: efficacious
